Data from patent US7504399B2, “Piperazine enamines as antiviral agents” (priority 2006, dated 2009).

test system: HIV-1 single-round infectious reporter virus; test: Single-round infectious HIV-1 luciferase reporter virus infection assay in HeLa CD4 cells; format: cell-based; conditions: Human immunodeficiency virus 1, HeLa, 72 h, read-out: EC50 Group from Table 1
Experimental: • Virus production-Human embryonic Kidney cell line, 293T, was propagated in Dulbecco's Modified Eagle Medium (Invitrogen, Carlsbad, Calif.) containing 10% fetal Bovine serum (FBS, Sigma, St. Louis, Mo.). • Virus infection—Human epithelial cell line, HeLa, expressing the HIV-1 receptor CD4 was propagated in Dulbecco's Modified Eagle Medium (Invitrogen, Carlsbad, Calif.) containing 10% fetal Bovine serum (FBS, Sigma, St. Louis, Mo.) and supplemented with 0.2 mg/mL Geneticin (Invitrogen, Carlsbad, Calif.). Virus-Single-round infectious reporter virus was produced by co-transfecting human embryonic Kidney 293 cells with an HIV-1 envelope DNA expression vector and a proviral cDNA containing an envelope deletion mutation and the luciferase reporter gene inserted in place of HIV-1 nef sequences (Chen et al., Ref. 41). Transfections were performed using lipofectAMINE PLUS reagent as described by the manufacturer (Invitrogen, Carlsbad, Calif.). Experiment • 1. HeLa CD4 cells were plated in 96 well plates at a cell density of 1×10^4 cells per well in 100 μl Dulbecco's Modified Eagle Medium containing 10% fetal Bovine serum and incubated overnight. • 2. Compound was added in a 2 μl dimethylsulfoxide solution, so that the final assay concentration would be ≦10 μM. • 3. 100 μl of single-round infectious reporter virus in Dulbecco's Modified Eagle Medium was then added to the plated cells and compound at an approximate multiplicity of infection (MOI) of 0.01, resulting in a final volume of 200 μl per well. • 4. Virally-infected cells were incubated at 37 degrees Celsius, in a CO2 incubator, and harvested 72 h after infection. • 5. Viral infection was monitored by measuring luciferase expression from viral DNA in the infected cells using a luciferase reporter gene assay kit, as described by the manufacturer (Roche Molecular Biochemicals, Indianapolis, Ind.). Infected cell supernatants were removed and 50 μl of lysis buffer was added per well. After 15 minutes, 50 μl of freshly-reconstituted luciferase assay reagent was added per well. Luciferase activity was then quantified by measuring luminescence using a Wallac microbeta scintillation counter. • 6. The percent inhibition for each compound was calculated by quantifying the level of luciferase expression in cells infected in the presence of each compound as a percentage of that observed for cells infected in the absence of compound and subtracting such a determined value from 100. • 7. An EC50 provides a method for comparing the antiviral potency of the compounds of this disclosure. The effective concentration for fifty percent inhibition (EC50) was calculated with the Microsoft Excel Xlfit curve fitting software. For each compound, curves were generated from percent inhibition calculated at 10 different concentrations by using a four paramenter logistic model (model 205). Table 1 is the key for the data in Table 2. Results

SMILES | EC50 [nM]
COc1cnc(Cl)c2[nH]cc(C(=O)C(=O)N3CCN(C(=C(C#N)C#N)c4ccccc4)CC3)c12 [EN-10] | < 1000
COc1cnc(-n2ccnn2)c2[nH]cc(C(=O)C(=O)N3CCN(C(=C(C#N)C#N)c4ccccc4)CC3)c12 [EN-07] | < 1000
N#C/C=C(\c1ccccc1)N1CCN(C(=O)C(=O)c2c[nH]c3c(Br)ccc(F)c23)CC1 [EN-03] | < 1000
COc1cnc(Cl)c2[nH]cc(C(=O)C(=O)N3CCN(/C(=C/C#N)c4ccccc4)CC3)c12 [EN-13] | < 1000
N#CC(C#N)=C(c1ccccc1)N1CCN(C(=O)C(=O)c2c[nH]c3ccccc23)CC1 [EN-02, 2-((4-(2-(1H-indol-3-yl)-2-oxoacetyl)piperazin-1-yl)(phenyl)methylene)malononitrile] | < 1000
N#CC(C#N)=C(c1ccccc1)N1CCN(C(=O)C(=O)c2c[nH]c3cccc(F)c23)CC1 [EN-11, 2-((4-(2-(4-fluoro-1H-indol-3-yl)-2-oxoacetyl)piperazin-1-yl)(phenyl)methylene)malononitrile] | < 1000
COc1cnc(-n2ccnn2)c2[nH]cc(C(=O)C(=O)N3CCN(/C(=C/C#N)c4ccccc4)CC3)c12 [EN-06] | < 1000
N#CC(C#N)=C(c1ccccc1)N1CCN(C(=O)C(=O)c2c[nH]c3c(-n4ccnn4)ncc(F)c23)CC1 [EN-08, 2-((4-(2-(4-fluoro-7-(1H-1,2,3-triazol-1-yl)-1H-pyrrolo[2,3-c]pyridin-3-yl)-2-oxoacetyl)piperazin-1-yl)(phenyl)methylene)malononitrile] | < 1000
O=C(O)/C=C(\c1ccccc1)N1CCN(C(=O)C(=O)c2c[nH]c3cccc(F)c23)CC1 [EN-09] | < 1000
N#C/C=C(\c1ccccc1)N1CCN(C(=O)C(=O)c2c[nH]c3ccccc23)CC1 [EN-01] | < 1000
COc1cnc(-n2cnc(C)n2)c2[nH]cc(C(=O)C(=O)N3CCN(/C(=C/C#N)c4ccccc4)CC3)c12 [EN-05] | < 1000
